Measurements reported in US20220371986A1, “METHOD TO GENERATE BIOCHEMICALLY REACTIVE AMINO ACIDS” (The Regents of the University of California, priority 2019, published 2022).

How the values were obtained:
Assay type in all cases: cell-based
[1] = system: E. coli; assay: E. coli growth in presence of FSY; conditions: 1 mM FSY in growth media
[2] = system: HeLa cells; assay: Toxicity and cell morphology of FSY in HeLa cells
[3] = system: 293T cells; assay: Toxicity of FSY to 293T cells
[4] = system: HeLa-EGFP-182TAG reporter cells; assay: FACS analysis of Uaa incorporation into HeLa-EGFP-182TAG reporter cells; conditions: flow cytometry; positive control AzF with plasmid pIre-Azi3
Method: FSY incorporation into proteins in mammalian cells was tested. HeLa-EGFP-182TAG reporter cells were transfected with plasmid pMP-FSYRS-3×tRNA, which expresses FSYRS and tRNA^Pyl genes. Wang et al, Nat. Neurosci., 10:1063-1072 (2007). Suppression of the 182TAG codon would produce full-length EGFP rendering cells fluorescent. After transfection, cells were incubated with FSY of various concentrations at 37° C. for 24 or 48 h followed by flow cytometry. Strong EGFP fluorescence was measured from cells only when FSY was added. The fluorescence intensity increased with FSY concentration and incubation time. As a positive control, p-azido-L-phenylalanine (AzF) was incorporated into reporter cells in parallel using plasmid pIre-Azi3, which is the most efficient Uaa incorporation system in mammalian cells in our hands. […] No fluorescence signal was detected when FSY was not added.
FACS analysis of Uaa incorporation into HeLa-GFP-182TAG reporter cells: One day before transfection, 4.5×10^4 HeLa-EGFP-182TAG reporter cells (Wang et al, Nat. Neurosci., 10:1063-1072 (2007)) were seeded in a Greiner bio-one 24 well-cell culture dish containing 500 μL of DMEM media with 10% FBS, and incubated at 37° C. in a CO2 incubator. […] The cells were resuspended in 300 μL of FACS buffer (1×PBS, 2% FBS, 1 mM EDTA, 0.1% sodium azide, 0.28 μM DAPI) and analyzed by BD LSRFortessa™ cell analyzer.

## N[C@@H](Cc1ccc(OS(=O)(=O)F)cc1)C(=O)O [FSY, fluorosulfate-L-tyrosine]
[1]
  cytotoxicity (E. coli growth): no obvious cytotoxicity
[2]; FSY incubation 24 or 48 h
  toxicity to HeLa cells: no obvious toxicity
[2]; HeLa-EGFP-182TAG reporter cells in the presence of FSY
  cell morphology (fluorescence confocal microscopy): cell morphology remained normal
[3]
  toxicity to 293T cells: no obvious toxicity
[4]
  Uaa incorporation (EGFP fluorescence) relative to the AzF level: 76%
